One assay concerns NCI-AR. The assay can be described thus: MTT cytotoxicity assay (% kill), NCI-AR. The assay is classed as cell-based, human. The note with it: 1 h exposure. On the procedure:
(§1) The following human tumor cell lines were obtained and cultured in sextuplicate microwells at 37° C. and 5% CO2 in humidified air and in 10% FBS in Eagles MEM: SK—N—FI, SK—N-AS, LS-174T, WiDr, HuTu-80, MCF7, NCI-AR, MES-Sar, and PL-45. Cells from each cell line were separately treated with an amount of one of the compounds of Formula I, II, or III (see Table 1). Cells were exposed to each compound (0.1 μg/mL or 1.0 μg/mL) for one hour or 24 hours, rinsed with drug-free media, and incubated for an additional five days. The number of viable cells after five days was measured using an MTT (3-(4,5-dimethylthiazol-2-yl)-2,5-diphenyltetrazolium bromide) assay (see, e.g., Mosmann, J. Immunol. Methods, 65(1-2), 55-63 (1983)).
(§2) The cytotoxicity of each drug was determined and expressed as the percent of cells killed (“% kill”).

The test system of another assay is SK-N-AS. The assay can be described thus: MTT cytotoxicity assay (% kill), SK-N-AS. The format is cell-based, human. The note with it: MTT after five days. On the procedure:
as §1, §2
On the technique in general: Formazan colour is commonly taken as a measure of viable cells.

Another assay relates to MES-Sar. The assay can be described thus: MTT cytotoxicity assay (% kill), MES-Sar. The note with it: 1 h exposure. The assay is classed as cell-based, human. On the procedure:
as §1, §2

The next assay relates to WiDr. The assay can be described thus: MTT cytotoxicity assay (% kill), WiDr. The note with it: 1 h exposure. The format is cell-based, human. On the procedure:
as §1, §2

Assay [1] deals with Colon 38 (murine colon adenocarcinoma). The assay can be described thus: Disk diffusion assay, zone of inhibition, Colon 38; zone differentials, potency and product. The assay is classed as cell-based. On the set-up: key to C38ΔL1210 / C38ΔCFU: difference of zone of inhibition values, in zone units. A digest of the protocol:
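Dissociated Colon 38 cells were plated in soft agar over a hard agar layer; 15 µl of compound dilution dried on a 6.5 mm disk was placed on the plate, and incubation ran 7–10 days. Inhibition zone was measured from disk edge to normal colonies, with the disk diameter = 200 units. Potency = dilution giving 500 units; the product multiplies it by the differentials against L1210 or CFU-GM.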
A general note: A growth-free zone around the sample is the usual read-out of agar diffusion tests.

The test system of the next assay is LS-174T. The assay can be described thus: MTT cytotoxicity assay (% kill), LS-174T. The assay is classed as cell-based, human. The note with it: 1 h exposure, MTT after five days. Here is the method: as §1, §2

Molecules are shown by their SMILES.

As for `CCC(O)(CC(=O)OC1C(=O)OC2CC3C(C)=C(O)C(=O)CC3(C)C3C(O)C(O)C4(C(=O)OC)OCC23C14)C(C)C` (mixture of isomers) [(+/−)-15-O-(3′-ethyl-3′-hydroxy-4′-methyl)-bruceolide], the “% kill, NCI-AR” value in the assay with NCI-AR (0.1 μg/mL) and in the assay on NCI-AR (1.0 μg/mL) was 0% in each case. Moreover, the “% Kill, SK-N-AS” value in the assay with SK-N-AS (0.1 μg/mL, 1 h exposure) is reported as 0%; in the assay on SK-N-AS (0.1 μg/mL, 24 h exposure), 0%; with SK-N-AS (1.0 μg/mL, 1 h exposure) it was 0%; in the assay with SK-N-AS (1.0 μg/mL, 24 h exposure) it was 0%. The “% kill, MES Sar” value in the assay on MES-Sar (0.1 μg/mL) and in the assay on MES-Sar (1.0 μg/mL) was 0% in each case. Moreover, the “% kill, WiDr” value with WiDr (0.1 μg/mL) and in the assay on WiDr (1.0 μg/mL) was 0% throughout. Further, in assay [1] (C38ΔL1210 plus C38ΔCFU), the Sum was found to be 1150. This molecule also showed a C38ΔL1210 in assay [1] (difference between zone of inhibition values, Colon38 vs L1210 leukemia) of 600. The C38ΔCFU in assay [1] (difference between zone of inhibition values, Colon38 vs normal cell CFU-GM) worked out at 550. For the same molecule, the Product in assay [1] (potency multiplied by zone differentials) came out at 3450. Also, the “% Kill, LS-174T” value in the assay with LS-174T (0.1 μg/mL) and with LS-174T (1.0 μg/mL) was 0% throughout.

These data come from patent US20060281807A1, “Quassinoid compositions for the treatment of cancer and other proliferative diseases” (Tapestry Pharmaceuticals, Inc., priority 2005, published 2006).
